Results: patent publication US12528814B2, “Bifunctional degraders of interleukin-1 receptor-associated kinases and therapeutic use thereof” (NURIX THERAPEUTICS, INC., priority 2020, dated 2026)
Read-outs that look alike come from different tables or passages of the source.

What was measured:
IRAK4 [1] = target: T1, IRAK4 (Homo sapiens (Human), UniProt Q9NWZ3); test: IRAK4 Biochemical HTRF Kinase Assay; settings: read-out: IRAK4 HTRF biochemical: IC50
Outline: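 IC50 values derive from non-linear regression of sixteen concentrations in duplicate. Kinase reaction ran 90 min at ambient temperature after adding 5 μM STK-S1 substrate, 10 mM ATP and 10 mM MgCl2 (reaction-solution levels, pre-dilution to 10 μl); phospho-peptide detected by HTRF after 60 min.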
Target sequence in this assay (Q9NWZ3 whole entry, species assumed): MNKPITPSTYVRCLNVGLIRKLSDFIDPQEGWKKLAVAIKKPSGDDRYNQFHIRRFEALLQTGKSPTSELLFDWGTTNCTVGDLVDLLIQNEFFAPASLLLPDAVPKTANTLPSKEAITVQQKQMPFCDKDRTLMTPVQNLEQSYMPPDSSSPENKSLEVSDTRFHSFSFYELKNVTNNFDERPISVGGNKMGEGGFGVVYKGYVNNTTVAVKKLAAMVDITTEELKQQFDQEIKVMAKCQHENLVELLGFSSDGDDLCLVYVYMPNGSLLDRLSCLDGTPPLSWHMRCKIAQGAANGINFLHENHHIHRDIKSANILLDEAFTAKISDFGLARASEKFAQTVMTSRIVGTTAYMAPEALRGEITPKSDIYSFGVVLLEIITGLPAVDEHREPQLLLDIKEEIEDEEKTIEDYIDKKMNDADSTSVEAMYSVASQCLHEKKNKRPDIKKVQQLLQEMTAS

IRAK4 [2] = target: T1, IRAK4; test: IRAK4 Degradation HiBiT Assay; settings: HiBiT-tagged Jurkat cells, 4 hrs; for Dmax: Jurkat; for DC50: read-out: Cellular IRAK4 HiBiT: DC50
Target sequence in this assay (Q9NWZ3 whole entry): as the sequence (Q9NWZ3 whole entry, species assumed) above

[3] = read-out: Cellular IRAK4 HiBiT: Dmax, Table 4
[4] = read-out: Cellular IRAK4 HiBiT: Dmax, Table 5, multiple runs

Cc1ncsc1-c1ccc([C@H](C)NC(=O)[C@@H]2C[C@@H](O)CN2C(=O)[C@@H](NC(=O)CCCCC(=O)N2CCN(c3nnc(-c4cnc(-c5ccc6cc(C#N)cnn56)cc4NC(C)C)s3)CC2)C(C)(C)C)cc1 [Example 39, (2S,4R)-1-((S)-2-(6-(4-(5-(6-(3-cyanopyrrolo[1,2-b]pyridazin-7-yl)-4-(isopropylamino)pyridin-3-yl)-1,3,4-thiadiazol-2-yl)piperazin-1-yl)-6-oxohexanamido)-3,3-dimethylbutanoyl)-4-hydroxy-N—((S)-1-(4-(4-methylthiazol-5-yl)phenyl)ethyl)pyrrolidine-2-carboxamide]
IC50 (IRAK4 [1]; Table 4): 5 nM
IC50 (IRAK4 [1]; Table 5, multiple runs): 5 nM
Dmax (IRAK4 [2]; [3]): 97%
Dmax (IRAK4 [2]; [4]): 97%
DC50 (IRAK4 [2]; Table 4): 357 nM
DC50 (IRAK4 [2]; Table 5, multiple runs): 357 nM

Cc1ncsc1-c1ccc([C@H](C)NC(=O)[C@@H]2C[C@@H](O)CN2C(=O)[C@@H](NC(=O)CCC(=O)N2CCN(c3nnc(-c4cnc(-c5ccc6cc(C#N)cnn56)cc4NC(C)C)s3)CC2)C(C)(C)C)cc1 [Example 40, (2S,4R)-1-((S)-2-(4-(4-(5-(6-(3-cyanopyrrolo[1,2-b]pyridazin-7-yl)-4-(isopropylamino)pyridin-3-yl)-1,3,4-thiadiazol-2-yl)piperazin-1-yl)-4-oxobutanamido)-3,3-dimethylbutanoyl)-4-hydroxy-N—((S)-1-(4-(4-methylthiazol-5-yl)phenyl)ethyl)pyrrolidine-2-carboxamide]
IC50 (IRAK4 [1]; Table 4): 3.6 nM
IC50 (IRAK4 [1]; Table 5, multiple runs): 3.6 nM
Dmax (IRAK4 [2]; [3]): 53%
Dmax (IRAK4 [2]; [4]): 53%
DC50 (IRAK4 [2]; Table 4): 420 nM
DC50 (IRAK4 [2]; Table 5, multiple runs): 419 nM

Cc1ncsc1-c1ccc([C@H](C)NC(=O)[C@@H]2C[C@@H](O)CN2C(=O)[C@@H](NC(=O)CCOCCOCCOCCOCCOCCC(=O)N2CCN(c3nnc(-c4cnc(-c5ccc6cc(C#N)cnn56)cc4NC(C)C)s3)CC2)C(C)(C)C)cc1 [Example 41, (2S,4R)-1-((S)-2-(tert-butyl)-22-(4-(5-(6-(3-cyanopyrrolo[1,2-b]pyridazin-7-yl)-4-(isopropylamino)pyridin-3-yl)-1,3,4-thiadiazol-2-yl)piperazin-1-yl)-4,22-dioxo-7,10,13,16,19-pentaoxa-3-azadocosanoyl)-4-hydroxy-N—((S)-1-(4-(4-methylthiazol-5-yl)phenyl)ethyl)pyrrolidine-2-carboxamide]
IC50 (IRAK4 [1]; Table 4): 1.3 nM
IC50 (IRAK4 [1]; Table 5, multiple runs): 1.3 nM
Dmax (IRAK4 [2]; [3]): 44%
Dmax (IRAK4 [2]; [4]): 47%
DC50 (IRAK4 [2]; Table 4): 872 nM
DC50 (IRAK4 [2]; Table 5, multiple runs): 1330 nM

Cc1ncsc1-c1ccc(CNC(=O)[C@@H]2C[C@@H](O)CN2C(=O)[C@@H](NC(=O)C2(F)CC2)C(C)(C)C)c(OCCCCCC(=O)N2CCN(c3nnc(-c4cnc(-c5ccc6cc(C#N)cnn56)cc4NC(C)C)s3)CC2)c1 [Example 42, (2S,4R)—N-(2-((6-(4-(5-(6-(3-cyanopyrrolo[1,2-b]pyridazin-7-yl)-4-(isopropylamino)pyridin-3-yl)-1,3,4-thiadiazol-2-yl)piperazin-1-yl)-6-oxohexyl)oxy)-4-(4-methylthiazol-5-yl)benzyl)-1-((S)-2-(1-fluorocyclopropane-1-carboxamido)-3,3-dimethylbutanoyl)-4-hydroxypyrrolidine-2-carboxamide]
IC50 (IRAK4 [1]; Table 4): 17.3 nM
IC50 (IRAK4 [1]; Table 5, multiple runs): 17.3 nM
Dmax (IRAK4 [2]; [3]): 104%
Dmax (IRAK4 [2]; [4]): 104%
DC50 (IRAK4 [2]; Table 4): 336 nM
DC50 (IRAK4 [2]; Table 5, multiple runs): 315 nM

Cc1ncsc1-c1ccc(CNC(=O)[C@@H]2C[C@@H](O)CN2C(=O)[C@@H](NC(=O)C2(F)CC2)C(C)(C)C)c(OCCCCCCCC(=O)N2CCN(c3nnc(-c4cnc(-c5ccc6cc(C#N)cnn56)cc4NC(C)C)s3)CC2)c1 [Example 43, (2S,4R)—N-(2-((8-(4-(5-(6-(3-cyanopyrrolo[1,2-b]pyridazin-7-yl)-4-(isopropylamino)pyridin-3-yl)-1,3,4-thiadiazol-2-yl)piperazin-1-yl)-8-oxooctyl)oxy)-4-(4-methylthiazol-5-yl)benzyl)-1-((S)-2-(1-fluorocyclopropane-1-carboxamido)-3,3-dimethylbutanoyl)-4-hydroxypyrrolidine-2-carboxamide]
IC50 (IRAK4 [1]; Table 4): 24.1 nM
IC50 (IRAK4 [1]; Table 5, multiple runs): 24 nM
Dmax (IRAK4 [2]; [3]): 78%
Dmax (IRAK4 [2]; [4]): 67%
DC50 (IRAK4 [2]; Table 4): 1170 nM
DC50 (IRAK4 [2]; Table 5, multiple runs): 1090 nM
